This is an account of results in patent publication US20180078561A1 (LAM Therapeutics, Inc., priority 2015, published 2018).

Entries after “also recorded” stand apart in the source; their conditions may differ. Like-named read-outs stand apart in the source and are kept apart here. Where only a bound is given, the exact number is not on record here.

Broadly, the Kd is the free concentration of one partner at which half of the binding sites on the other are occupied at equilibrium, for simple one-to-one binding. Usually fraction unbound stands for the share of the substance not bound to proteins or other matrix. Read a high fraction unbound as much free substance. In general, IC20 refers to the concentration at which the effect reaches the 20% level.

In series [1] the test system is WSU-DLCL2 cells. The series is described as follows: anti-proliferative activity normalized to apilimod (plasma concentration factors). The format is cell-based, Human. The settings on record: data from WSU-DLCL2 cells.
Series [2] deals with T1, PIKfyve (Homo sapiens, UniProt Q9Y2I7).
T1 construct: purchased DiscoveRx, Fremont, Calif
Kind of series: dissociation constant (Kd) study. The format is binding. The following applies: 0.05-3000 nM, duplicate. The protocol:
A dissociation constant (Kd) study was performed using the 3 compounds at increasing concentrations (0.05-3000 nM) against PIKfyve.

For series [3], the system named is cancer cell line. Kind of series: vacuolization of cells. The format is cell-based. The following applies: for vacuolation in cells: at concentrations comparable to apilimod. An excerpt:
PIKfyve is associated with the cytosolic leaflet of early endosomes and its activity is required for endomembrane homeostasis, endolysosomal function and proper retrograde transport from the endosome to the trans-Golgi network. Introduction of a kinase dead mutant into cells induces a swollen vacuole phenotype that can be rescued by the injection of PI(3,5)P2. Inhibition of PIKfyve by pharmacological methods as well as RNAi also produces swollen vacuoles and disruption of endomembrane dynamics.
Introduction of a kinase dead mutant into cells induces a swollen vacuole phenotype that can be rescued by the injection of PI(3,5)P2. Inhibition of PIKfyve by pharmacological methods as well as RNAi also produces swollen vacuoles and disruption of endomembrane dynamics.

The nature of series [4]: human plasma profile of apilimod and metabolites. The format is in vivo. The following applies: oral 105 mg doses of apilimod free base, given 10 hr apart.
Series [5] can be described thus: plasma protein binding. The format is in vitro ADME. The following applies: dog plasma proteins.
The nature of series [6]: plasma protein binding. The format is in vitro ADME. The settings on record: rat plasma proteins.
The nature of series [7]: plasma protein binding. The format is in vitro ADME. The following applies: human plasma proteins.
For series [8], the system named is (TSC2−/−, p53−/−) MEF. The series is described as follows: 10-point dose response, cell viability (CellTiter-Glo). The format is cell-based. The following applies: Mus musculus; cell type MEF TSC2 −/− p53 −/−; 72 h; average of two experiments. For orientation: Cellular ATP, detected with luciferase, serves as a proxy for viable cell number.
Source text: (§2) (2) ELT3-EV and ELT3-TSC2 lines were established from the ELT3 rat tumor cell line. […] To develop an isogenic pair of cells ELT3 cells were infected with a retrovirus vector encoding the hygromycin antibiotic resistance gene (ELT3-EV) or the same retrovirus vector also encoding TSC2 (ELT3-TSC2). The ELT3-EV and ELT3-TSC2 line were then established by hygromycin selection. […] The cells were infected with amphotropic retrovirus LXSN16E6E7 that encodes the HPV16 E6 and E7 open reading frames and neomycin resistance cassette. Cells were expanded and neomycin-selected. Individual clones were isolated and frozen down. The coding sequence for the human Telomerase gene (hTERT) with hygromycin resistance cassette (pLXSN hTERT-hyg plasmid) was stably expressed into a TSC2^−/− confirmed E6E7 AML clone using Fugene6 transfection reagent (Roche Applied Science, Indianapolis, Ind.). TRI-AML102 was generated by stable incorporation of a control zeomycin selection plasmid (pcDNA3.1-zeo), while TRI-AML103 expresses the human TSC2 cDNA pcDNA3.1-zeo plasmid.
In series [9] the test system is TRI-AML102 (TSC2 null AML). The description is as above. The format is cell-based. The settings on record: Homo sapiens; cell type AML (head: AML TSC2 +/− p53 −/−); 72 h; average of two experiments.
Source text: as §2
The test system of series [10] is H4 neuroglioma cell line. Kind of series: Cyto-ID Autophagy detection. The format is cell-based, Human. The settings on record: 72 hours of treatment. An excerpt: Autophagy was quantified using the Cyto-ID Autophagy detection kit (Enzo) according to manufacturer's directions.
Series [11] relates to Jurkat. The settings on record: WO 2006/128129; cited from earlier work.
Series [12] concerns 122 human cancer cell lines. The series is described as follows: cancer cell line screen for sensitivity to apilimod. The format is cell-based. The following applies: sensitive if IC50 less than 500 nM. An excerpt:
(§1) 35 cell lines were identified as sensitive to apilimod-induced cytotoxicity.
The most sensitive of those tested were non-Hodgkin's Lymphoma (NHL) cell lines. […] NHL represents a diverse group of hematopoietic malignancies that vary in severity, with subtypes ranging from slow growing to aggressive. Subtypes of NHL include diffuse large B cell lymphoma (DLBCL), Burkitt's lymphoma, mantle lymphoma, and follicular B cell lymphoma. DLBCL is divided into two subtypes, GCB and ABC, based on gene expression and cell of origin. The GCB are germinal center B cell type, arising from normal germinal center B cells, and the ABC are activated B cell type, arising from post-germinal center B cells in the process of differentiating into plasma cells.

For series [13], the system named is H4. Kind of series: cell viability (CellTiterGlo), apilimod sensitivity. The format is cell-based. The following applies: Homo sapiens, Human neuroglioma.
Source text: as §1

For series [14], the system named is THP-1. The following applies: WO 2006/128129; cited from earlier work.
Series [15] concerns diffuse large B cell lymphoma cells. Kind of series: Apotox-Glo Triplex assay. The format is cell-based. The settings on record: 48 hours after addition. The protocol:
Apoptosis was quantified and distinguished from necrosis using the Apotox-Glo Triplex assay (Promega, Inc.) according to the manufacturer's instructions. In this assay, viability, apoptosis, and necrosis are assessed simultaneously using three different markers (GF-AFC, Caspase-3/7, and bis-AAF-R110, respectively).

Series [16] relates to Normal lung fibroblasts. Kind of series: cytotoxicity on normal cells. The format is cell-based. The following applies: concentrations as high as 10 micromolar.
Source text: as §1

The subject of series [17] is MEF-EV (TSC2−/− MEF). The series is described as follows: 10-point dose response, cell viability (CellTiter-Glo). The format is cell-based. The settings on record: Mus musculus; cell type MEF TSC2 −/− (MEF-EV); 72 h; average of two experiments. An excerpt:
TSC2 null cells have constitutively active mTOR. Briefly, MEF cells derived from TSC2−/− knockout mouse embryos (Onda et al., J. Clin. Invest. 104(6):687-95, 1999) were infected with a retrovirus vector encoding the hygromycin antibiotic resistance gene (MEF-EV) or the same retrovirus vector also encoding TSC2 (MEF-TSC2). The MEF-EV and MEF-TSC2 line were then established by hygromycin selection.
See e.g., Zhang et al. J. Clin. Invest. 112, 1223-33, 2003. (2) ELT3-EV and ELT3-TSC2 lines were established from the ELT3 rat tumor cell line. The ELT3 line is an established rat tumor model for LAM/TSC. See e.g., Howe et al., Am. J. Path. 146, 1568-79, 1995. These cells harbor an inactivating mutation in TSC2, which leads to constitutive activation of the mTOR pathway. To develop an isogenic pair of cells ELT3 cells were infected with a retrovirus vector encoding the hygromycin antibiotic resistance gene (ELT3-EV) or the same retrovirus vector also encoding TSC2 (ELT3-TSC2). The ELT3-EV and ELT3-TSC2 line were then established by hygromycin selection. […] The cells were infected with amphotropic retrovirus LXSN16E6E7 that encodes the HPV16 E6 and E7 open reading frames and neomycin resistance cassette. […]
IC50 values were then calculated from the dose response curves using XLFIT (IDBS).

Series [18] deals with HELA. The following applies: WO 2006/128129; cited from earlier work.
In series [19] the test system is peripheral blood mononuclear cells. The following applies: Wada et al., Blood 109, 2007; cited from earlier work.
The conditions of series [20]: for Apilimod Ave. Plasma Conc.: Day 7; for sustained blood concentration of apilimod: measured at 24 h.
The test system of series [21] is ELT3-EV. The series is described as follows: 10-point dose response, cell viability (CellTiter-Glo). The format is cell-based. The settings on record: Rattus norvegicus; cell type ELT3 (ELT3-EV); 72 h; average of two experiments; read-out: IC50 TSC2 −/−.
Source text: as §2
The test system of series [22] is SUDHL-4 cells. The series is described as follows: drug library screen with and without apilimod, cell viability. The format is cell-based. The following applies: Homo sapiens, SU-DHL-4. An excerpt:
A manually curated library of 93 drugs including both FDA approved and unapproved drugs was used in the screen.
Ibrutinib is an FDA-approved drug targeting B-cell malignancies and indicated for monotherapy in treating mantle cell lymphoma and chronic lymphocytic leukemia. It is also known as PCI-32765 and marketed under the trade name Imbruvica™. […] BTK is a key mediator of at least three critical B-cell pro-survival mechanisms occurring in parallel-regulation of apoptosis, cell adhesion and cell migration and homing.

Series [23] relates to U937. The settings on record: WO 2006/128129; cited from earlier work.
The test system of series [24] is Yulac614 melanoma cells. The series is described as follows: drug combination screen and validation, cell viability.
Method: Yulac614 (resistant to vemurafenib, see Choi et al. 2014) cells were used to conduct drug combination studies to identify synergistic drug pairs. A library of 500 unapproved drugs was used to perform drug screening in the presence or absence of vemurafenib (at IC20=6 μM).
30 nL of library drug (at 1000× concentration) was spotted into appropriate wells of a 384 black walled plate (Corning #3712). Duplicate drug-spotted plates were prepared and to them were added Yulac614 cells which were pre-treated with either DMSO (0.01% final) or vemurafenib (6 μM final). The Yulac614 cells were grown in OptiMEM (Life Technologies) containing 5% FBS (Sigma Aldrich F2442-500 mL, Lot 12D370) Penicillin/Streptomycin (100×) (CellGro Ref 30-002). […]
Plates were incubated for 72 h at 37° C. under an atmosphere of 5% CO2 in a humidified incubator. Cell viability was determined with CellTiter-Glo® luminescence assay (Promega) as per the manufacturer's instructions. Viability was expressed as a percentage of control (DMSO) cells. […]
50 uL of the 10 point drug dilution series (at 2× concentration) was added to the cells. […] 72 hours after compound addition relative cell viability was determined by CellTiter-Glo® luminescence assay (Promega) as per the manufacturer's instructions, and values were expressed as a percentage relative to vehicle (DMSO) treated control cells (set to 100%).

T1 sequence (Q9Y2I7 whole entry): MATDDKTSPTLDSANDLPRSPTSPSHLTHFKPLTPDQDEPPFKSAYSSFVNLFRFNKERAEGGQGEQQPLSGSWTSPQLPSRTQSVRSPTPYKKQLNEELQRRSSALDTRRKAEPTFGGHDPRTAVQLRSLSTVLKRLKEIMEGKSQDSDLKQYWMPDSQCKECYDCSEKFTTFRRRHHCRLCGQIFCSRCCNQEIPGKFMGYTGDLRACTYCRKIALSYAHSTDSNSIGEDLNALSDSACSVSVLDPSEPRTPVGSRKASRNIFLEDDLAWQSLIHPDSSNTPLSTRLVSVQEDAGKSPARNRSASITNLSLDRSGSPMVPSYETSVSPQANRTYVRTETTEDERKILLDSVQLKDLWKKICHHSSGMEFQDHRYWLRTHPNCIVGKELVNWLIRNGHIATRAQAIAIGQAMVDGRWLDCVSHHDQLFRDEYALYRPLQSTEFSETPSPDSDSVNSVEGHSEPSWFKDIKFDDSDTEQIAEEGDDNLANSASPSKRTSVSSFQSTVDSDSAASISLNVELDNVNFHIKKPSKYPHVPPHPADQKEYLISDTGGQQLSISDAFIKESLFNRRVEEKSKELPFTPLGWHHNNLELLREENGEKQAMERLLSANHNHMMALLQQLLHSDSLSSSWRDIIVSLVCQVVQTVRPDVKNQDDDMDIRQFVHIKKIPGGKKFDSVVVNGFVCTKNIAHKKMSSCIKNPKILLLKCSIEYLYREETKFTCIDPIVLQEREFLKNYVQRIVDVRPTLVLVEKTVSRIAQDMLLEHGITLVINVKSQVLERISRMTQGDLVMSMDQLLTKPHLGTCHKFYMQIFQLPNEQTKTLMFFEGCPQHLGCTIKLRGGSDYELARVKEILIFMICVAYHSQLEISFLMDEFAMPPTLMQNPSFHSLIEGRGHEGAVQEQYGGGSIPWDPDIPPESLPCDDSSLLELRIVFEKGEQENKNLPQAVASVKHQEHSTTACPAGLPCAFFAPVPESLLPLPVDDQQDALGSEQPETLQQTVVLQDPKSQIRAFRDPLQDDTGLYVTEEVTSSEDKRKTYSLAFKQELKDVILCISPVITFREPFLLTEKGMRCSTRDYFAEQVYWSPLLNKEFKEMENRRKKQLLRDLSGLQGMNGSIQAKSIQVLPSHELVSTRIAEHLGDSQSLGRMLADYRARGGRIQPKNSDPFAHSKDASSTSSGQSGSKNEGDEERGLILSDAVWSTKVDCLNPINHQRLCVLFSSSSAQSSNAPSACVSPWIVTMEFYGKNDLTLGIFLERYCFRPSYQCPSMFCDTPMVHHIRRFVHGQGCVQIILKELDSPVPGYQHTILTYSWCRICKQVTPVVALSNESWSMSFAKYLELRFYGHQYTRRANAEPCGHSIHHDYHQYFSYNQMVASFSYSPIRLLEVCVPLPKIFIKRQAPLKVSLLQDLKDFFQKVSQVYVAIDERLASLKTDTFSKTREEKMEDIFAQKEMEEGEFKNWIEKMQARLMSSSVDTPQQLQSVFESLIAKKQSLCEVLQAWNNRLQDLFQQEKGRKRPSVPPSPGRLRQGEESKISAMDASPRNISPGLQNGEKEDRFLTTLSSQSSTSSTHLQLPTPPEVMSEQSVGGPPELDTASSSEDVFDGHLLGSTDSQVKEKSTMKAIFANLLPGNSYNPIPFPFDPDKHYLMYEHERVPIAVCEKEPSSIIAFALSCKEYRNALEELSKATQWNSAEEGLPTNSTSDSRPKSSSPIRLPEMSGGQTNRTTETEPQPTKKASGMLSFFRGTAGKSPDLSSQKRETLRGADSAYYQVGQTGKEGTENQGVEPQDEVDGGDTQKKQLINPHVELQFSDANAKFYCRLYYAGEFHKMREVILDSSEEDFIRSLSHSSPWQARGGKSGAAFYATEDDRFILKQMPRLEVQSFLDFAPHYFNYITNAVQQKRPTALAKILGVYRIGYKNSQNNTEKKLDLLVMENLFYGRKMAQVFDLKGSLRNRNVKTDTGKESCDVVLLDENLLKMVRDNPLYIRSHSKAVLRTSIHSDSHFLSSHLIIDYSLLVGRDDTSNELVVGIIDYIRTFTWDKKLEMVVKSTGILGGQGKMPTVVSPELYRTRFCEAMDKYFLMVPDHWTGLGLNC

`Cc1cccc(/C=N/Nc2cc(N3CCOCC3)nc(OCC(O)c3cccc[n+]3[O-])n2)c1` (stereo not shown) [STA-6048]: the “plasma concentration factor (for Apilimod Equivalent Concentrations)” value (“plasma concentration factor” below) in [1] came out at 0.26. Binding in series [2] was characterised by a dissociation constant (Kd) of 0.088 nM. Moreover, in series [3], the vacuolation in cells result is “cause vacuolation in cells at comparable concentrations”.

With `Cc1cccc(/C=N/Nc2cc(N3CCOCC3)nc(OCC(O)c3ccccn3)n2)c1` (stereo not shown) [STA-5908], the “mean Cmax relative to apilimod” value in [4] was “somewhat less than half”. Further, the “plasma concentration factor” value in series [1] came out at 0.68. In series [2], this molecule yielded a Kd of 0.09 nM. Moreover, the vacuolation in cells entry in [3] is reported as “cause vacuolation in cells at comparable concentrations”.

Turning to `Cc1cccc(/C=N/Nc2cc(N3CCOCC3)nc(OCCc3ccccn3)n2)c1` [apilimod free base], the fraction unbound in series [5], in series [6] and in series [7] was below 0.01 throughout.

As to `Cc1cccc(/C=N/Nc2cc(N3CCOCC3)nc(OCCc3cccc[n+]3[O-])n2)c1` [STA-5944], the “mean Cmax relative to apilimod” value in [4] is listed as “somewhat less than half”. Also, the “plasma concentration factor” value in series [1] is listed as 0.52. In series [2], this molecule came in with an equilibrium dissociation constant (Kd) of 0.061 nM. Further, the vacuolation in cells entry in [3] is reported as “cause vacuolation in cells at comparable concentrations”.

Regarding `Cc1cccc(/C=N/Nc2cc(N3CCOCC3)nc(OCCc3ccccn3)n2)c1` [apilimod], the IC50 in series [8] was 28.8 nM; in series [9], 117 nM; in series [13], 250 to 300 nM; in series [17], 19.7 nM; in series [21], 13.7 nM. In [10], the “autophagy (autophagic vacuoles)” value is “induced autophagy in a dose-dependent manner”. Also, the cytotoxicity entry in [11], in [14], in [18], in series [19] and in [23] was “not cytotoxic” throughout. In addition, the “NHL cell lines tested that were sensitive to apilimod” value in [12] (non-Hodgkin's Lymphoma cell lines) was “over 50%”. For the same molecule, in series [12] (of 122 human cancer cell lines), the “cell lines identified as sensitive to apilimod-induced cytotoxicity” value is reported as 35 cell lines. Moreover, the “apoptosis (Caspase-3/7 marker)” value in series [15] is recorded as “increased apoptosis”. Also, the apilimod-induced cytotoxicity entry in series [16] was “not cytotoxic; also recorded: insensitive”. Besides, the “Apilimod Ave. Plasma Conc.” value in [20] (Group 3: S.C. pump ~15 mg/kg/d (DRW) + I.P. 30 mg/kg (MC)) is 0.682 µM; in [20] (Group 7: S.C. pump ~15 mg/kg/d (DRW) + I.P. 30 mg/kg (DRD)), 0.613 µM; in [20] (Group 8: S.C. pump ~30 mg/kg/d (DRW) + I.P. 30 mg/kg (DRD)) it was 1.76 µM; in series [20] (Group 9: S.C. pump ~15 mg/kg/d (DRW) only), 0.755 µM; in series [20] (Group 10: S.C. pump ~30 mg/kg/d (DRW) only), 1.87 µM. The “sustained blood concentration of apilimod” value in [20] (S.C. osmotic mini-pump 15 mg/kg/day (bis-mesylate salt)) is above 0.5 µM; in series [20] (S.C. osmotic mini-pump 30 mg/kg/day (bis-mesylate salt)) it was above 1 µM. The IC20 in [22] was determined as 10 nM; in series [24], 500 nM. Further, the “apilimod concentration at which vacuole formation in cells was observed” value in [3] (as low as) was 20 nM. Further, the vacuolization entry in series [3] (live cells, 500 nM, 24 h) is “induces vacuolization”.
